Patent publication US20160184274A1, “Methods for inhibiting mesenchymal phenotype after epithelial-to-mesenchymal transition” (Fibrostatin, S.L., priority 2014, published 2016)
“Also recorded” adds a separate entry of the source.

Tests used:
[1] = test system: A549 cells expressing GPBP-EYFP; assay: GPBP-induced phenotype transition, Western blot of markers; type: cell-based, Human; details: T12 10 μM, 24 h; FIG. 4
Description: FIG. 4. T12 inhibits GPBP-induced phenotype transition in A549 cultures. A549 cells expressing either GPBP-EYFP fusion protein or EYFP were cultured during 24 h in the presence (+) or absence (−) of T12 (10 μM.) Then cells were lysed and similar amounts of lysates were analyzed by Western blot with antibodies against the indicated proteins. Loading equivalence was confirmed by tubulin expression analysis in each of the individual experiments (not shown). To generate cells expressing GPBP fused to Enhanced Yellow Fluorescent Protein (GPBP-EYFP) or EYFP, A549 cells were transfected either with pEYFP-N1-GPBP construct or with pEYFP-N1 vector (Clontech), expressing GPBP-EYFP and EYFP, respectively. Transfected cells were selected with 400 mg/L of geniticin and clones were isolated with a High SPEED CELL SORTER MOFLO® (Beckman-Coulter) and further cultured. Recombinant protein expression was assessed by immunofluorescence microscopy and by Western blot with anti-GPBP N27 mouse monoclonal antibodies. For Western blot analysis, cells were lysed in TBS supplemented with 1% Triton X-100, 0.1% SDS, 1 mM PMSF, 10 μg/mL leupeptine and 20 mM NaF during 30 min at 4° C. Lysates were centrifuged (16,000×g, 5 min, 4° C.) and supernatants were collected and protein concentration determined (Bio-Rad Protein Assay). Samples were subjected to reducing SDS-PAGE and electro-transference onto PVDF membrane. […]

[2] = test system: circulating 4T1 cells; assay: Cell death / caspase 3 activation in circulating 4T1 cells; type: cell-based, Mouse
Description: FIG. 11. T12 targets circulating 4T1 cancer cells. A, Balb/c female mice were inoculated with 4T1 mouse breast cancer cells at mammary fat pads. At day 20 after cell inoculation mice were subjected to PET analysis for metastases detection. White arrows denote metastatic foci at the spinal cord. B, Balb/c female from A were either left untreated (Control), or were treated with T12 in drinking water from day 20. At day 35 blood was seeded in the presence of 6-thioguanine and circulating 4T1 cells selected and further cultured. Shown are phase contrast images of the resulting cultures acquired with an inverted microscope. […] C, circulating 4T1 cells recovered as in B and 4T1 cells were cultured in standard 2D cultures and subjected to RNA extraction, and RNA samples were analyzed by RT-qPCR. Shown are the relative quantities (RQ) of the indicated mRNAs of circulating 4T1 cells using levels from 4T1 cells as reference. […] Dead cells in culture media were quantified by measuring cell size using an automated cell counter (Moxi Z, Orflo). […] E, circulating 4T1 cells recovered as in B or 4T1 cells were cultured in ultra-low binding plates and treated with the indicated concentrations of T12 for 9 days, cells were lysed and analyzed by Western blot using antibodies specific for activated caspase 3. The levels of GAPDH were determined for loading control purposes. […]

[3] = test system: RAW264.7; assay: Collagen IV expression in RAW264.7; type: cell-based; details: data not shown
[4] = test system: A549 tumors with epithelial phenotype; details: T12 20 mg/kg/day in drinking water, alone or with doxorubicin 4 mg/kg/week i.p.; previously reported, WO/2014/006020; cited from earlier work

**Q.** With COc1ccc(-c2ccc(-c3cccc(C)c3)c(C)c2)c(CCC(=O)O)c1 [T12, 3-[4″-methoxy-3,2′-dimethyl-(1,1′;4′,1″)terphenyl-2″-yl] propionic acid] as the molecule, how does the “effect on GPBP-EYFP-induced changes of vimentin, phospho p70-S6 kinase and E-cadherin” value [1] read?
**A.** The value was “counteracted all these regulatory effects”.

**Q.** And the “sensitivity to T12 after further induction of mesenchymal phenotype” value ([2]; 4T1 cells inoculated into mice or cultured in low adherent dishes (3D cultures), FIG. 11)?
**A.** The value was “more sensitivity to T12”.

**Q.** What about the “sensitivity to T12: dead cells and activated caspase 3” value ([2]; 24 h (dead cells) or 9 days in ultra-low binding plates (caspase 3), FIG. 11D-E) of the same molecule?
**A.** Its value is “more sensitive and underwent apoptotic cell death (caspase 3 activation)”.

**Q.** And the “collagen IV expression” value [3]?
**A.** Its value is “significantly reduced collagen IV expression”.

**Q.** What about the “tumor growth (relative tumor volume)” value [4] of the same molecule?
**A.** Its value is “required the synergistic action of doxorubicin to efficiently inhibit tumor growth; also recorded: synergistic with doxorubicin”.
